Experiments:
[1] = system: PCB490-3 (human epithelioid sarcoma primary culture)
Method: (§1)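 Roche open-access kinase inhibitor screen (223 compounds) on human epithelioid sarcoma primary cultures from three spatially distinct regions of tumor PCB490. 384-well plates, 72 h, CellTiter-Glo viability; IC50 by Hill curve fit. 100000 nM = no IC50 reached. Compound ids carry a plate-well prefix, which is stripped.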

[2] = system: PCB490-4 (human epithelioid sarcoma primary culture)
Method: as §1

[3] = system: PCB490-5 (human epithelioid sarcoma primary culture)
Method: as §1

Row | SMILES | IC50 cell viability [1] | IC50 cell viability [2] | IC50 cell viability [3]
1 | COc1ccc(F)cc1C(=O)c1cnc(NC2CCN(S(C)(=O)=O)CC2)nc1N | > 100 µM | > 100 µM | > 100 µM
2 | O=C1NC(=O)C(c2c[nH]c3ccccc23)=C1c1ccccc1 | > 100 µM | > 100 µM | > 100 µM
3 | CNCCCn1cc(C2=C(c3cn(C)c4ccccc34)C(=O)NC2=O)c2ccccc21 | > 100 µM | > 100 µM | > 100 µM
4 | Cn1c(=O)c(Oc2ccc(F)cc2F)cc2cnc(NCCS(C)(=O)=O)nc21 | > 100 µM | > 100 µM | > 100 µM
5 | COc1ccccc1CN=C1NC(=O)/C(=C/c2ccc3ncccc3c2)S1 | > 100 µM | > 100 µM | > 100 µM
6 | Cn1cc(C2=C(c3cn(C)c4c([N+](=O)[O-])cccc34)C(=O)NC2=O)c2ccccc21 | > 100 µM | > 100 µM | > 100 µM
7 | CCc1c(C)nc2sc3c(N)ncnc3c2c1C | > 100 µM | > 100 µM | > 100 µM
8 | Nc1c(C(=O)c2cccc(CCC3(O)CCCC3)c2)cnn1-c1ccc(F)cc1 | > 100 µM | > 100 µM | > 100 µM
9 | OCCn1c(-c2ccncc2)c(-c2ccc(F)cc2)c2ncccc21 | > 100 µM | > 100 µM | > 100 µM
10 | CN=C1NC(=O)/C(=C/c2ccc3ncccc3c2)S1 | > 100 µM | > 100 µM | > 100 µM
11 | COc1ccc(C2=C(c3cn(C)c4ccccc34)C(=O)NC2=O)cc1 | > 100 µM | > 100 µM | > 100 µM
12 | Cn1c(=O)c(Cc2ccc(F)cc2F)cc2cnc(NC3CCOCC3)nc21 | > 100 µM | > 100 µM | > 100 µM
13 | O=C1NC(=NCCc2ccccc2Cl)S/C1=C\c1ccc2ncccc2c1 | > 100 µM | > 100 µM | > 100 µM
14 | N#Cc1cccc(C(=O)c2cnn(-c3ccc(F)cc3)c2N)c1 | > 100 µM | > 100 µM | > 100 µM
15 | CC(CO)Nc1cc(-c2[nH]c3cccnc3c2-c2ccc(F)cc2)ccn1 (stereo not drawn) | > 100 µM | > 100 µM | > 100 µM
16 | Nc1c(C(=O)c2cccc(CCS(N)(=O)=O)c2)cnn1-c1ccc(F)cc1 | > 100 µM | > 100 µM | > 100 µM
17 | COC[C@H](N=C1NC(=O)/C(=C/c2ccc3ncccc3c2)S1)c1ccccc1 | > 100 µM | > 100 µM | > 100 µM
18 | Cc1[nH]n(-c2ccccc2)c(=O)c1C(=O)c1ccccc1 | > 100 µM | > 100 µM | > 100 µM
19 | O=C1NC(=Nc2ccccc2)S/C1=C\c1ccc2ncccc2c1 | > 100 µM | > 100 µM | > 100 µM
20 | Cn1cc(C2=C(c3c[nH]c4ccccc34)C(=O)NC2=O)c2ccccc21 | > 100 µM | > 100 µM | > 100 µM
21 | Cn1c(=O)c(Cc2ccccc2F)cc2cnc(NC3CCOCC3)nc21 | > 100 µM | > 100 µM | > 100 µM

Row | SMILES | IC50 cell viability [1] | IC50 cell viability [2] | IC50 cell viability [3]
22 | CNCC1CCn2c(c(C3=C(c4cn(C)c5ccccc45)C(=O)NC3=O)c3ccccc32)C1 (stereo not drawn) | 0.89 µM | > 100 µM | > 100 µM
23 | Cn1cc(C2=C(c3cccc(OCC(O)CO)c3)C(=O)NC2=O)c2ccccc21 (stereo not drawn) | > 100 µM | > 100 µM | > 100 µM
24 | O=C1C(c2c[nH]c3ccccc23)=C(c2c[nH]c3ccccc23)C(=O)N1O | > 100 µM | > 100 µM | > 100 µM
25 | Nc1c(C(=O)c2cccc(C#CCN3CCCCC3)c2)cnn1-c1ccc(F)cc1 | > 100 µM | > 100 µM | > 100 µM
26 | COc1cc(F)c(F)cc1C(=O)c1cnc(NC2CCN(S(C)(=O)=O)CC2)nc1N | > 100 µM | > 100 µM | > 100 µM
27 | CC(=O)Nc1ccc2c(c1)C(c1ccccc1Cl)=Nc1c(n[nH]c1C)N2 | 4.63 µM | 1.72 µM | 1.55 µM
28 | Nc1c(C(=O)c2ccccc2)cnn1-c1ccc(F)cc1 | > 100 µM | > 100 µM | > 100 µM
29 | Nc1c(C(=O)c2ccc(-c3cccnc3)cc2)cnn1-c1ccc(F)cc1 | > 100 µM | > 100 µM | > 100 µM
30 | Cn1cc(C2=C(c3c4n(c5ccccc35)CCC(CN)CC4)C(=O)NC2=O)c2ccccc21 (stereo not drawn) | > 100 µM | > 100 µM | > 100 µM
31 | Cn1cc(C2=C(c3cn(C)c4ccc(Cl)cc34)C(=O)NC2=O)c2ccccc21 | > 100 µM | > 100 µM | > 100 µM
32 | CC(C)Nc1ncc2cc(Oc3ccc(F)cc3F)c(=O)n(C)c2n1 | > 100 µM | > 100 µM | > 100 µM
33 | Cn1c(=O)c(Oc2ccc(F)cc2F)cc2cnc(NC3CCC(O)CC3)nc21 (stereo not drawn) | > 100 µM | > 100 µM | > 100 µM
34 | Cn1cc(C2=C(Sc3ccccc3)C(=O)NC2=O)c2ccccc21 | > 100 µM | > 100 µM | > 100 µM
35 | O=C1OC(=O)C(c2c[nH]c3ccccc23)=C1c1c[nH]c2ccccc12 | > 100 µM | > 100 µM | > 100 µM
36 | CC(=O)N[C@@H](Cc1ccc(OP(=O)(O)O)cc1)C(=O)N[C@H]1CCC(=O)N2CCC[C@@H](C(=O)NCc3cccc4ccccc34)N2C1=O | > 100 µM | > 100 µM | > 100 µM
37 | CC(C)(O)Cn1c(=O)c(Oc2ccc(F)cc2F)cc2cnc(NC3CCOCC3)nc21 | 2.86 µM | > 100 µM | > 100 µM
38 | COc1cccc(C2=C(c3cn(C)c4ccc(Cl)cc34)C(=O)NC2=O)c1 | > 100 µM | > 100 µM | > 100 µM
39 | O=C1NC(=NCc2c(Cl)cccc2Cl)S/C1=C\c1ccc2ncccc2c1 | > 100 µM | > 100 µM | > 100 µM
40 | Cn1cc(C2=C(c3cn(-c4ccccc4)c4ccccc34)C(=O)NC2=O)c2ccccc21 | > 100 µM | > 100 µM | > 100 µM
41 | Cn1cc(C2=C(c3ccc(N)cc3)C(=O)NC2=O)c2ccccc21 | > 100 µM | > 100 µM | > 100 µM
42 | Cn1cc(C2=C(c3c4n(c5ccccc35)CCN(C(N)=S)C4)C(=O)NC2=O)c2ccccc21 | > 100 µM | > 100 µM | > 100 µM

Row | SMILES | IC50 cell viability [1] | IC50 cell viability [2] | IC50 cell viability [3]
43 | Cn1cc(C2=C(c3cn(CCCN)c4ccccc34)C(=O)NC2=O)c2ccccc21 | > 100 µM | > 100 µM | > 100 µM
44 | Cn1cc(C2=C(c3c4n(c5ccccc35)CCCC4)C(=O)NC2=O)c2ccccc21 | > 100 µM | > 100 µM | > 100 µM
45 | O=C1NC(=NCc2cccs2)SC1Cc1ccc2ncccc2c1 (stereo not drawn) | > 100 µM | > 100 µM | > 100 µM
46 | Cn1cc(C2=C(Oc3ccccc3)C(=O)NC2=O)c2ccccc21 | > 100 µM | > 100 µM | > 100 µM
47 | Cn1cc(C2=C(c3ccccc3C(F)(F)F)C(=O)NC2=O)c2ccccc21 | > 100 µM | > 100 µM | > 100 µM
48 | Cn1cc(C2=C(c3cn(C)c4cc(C(=O)O)ccc34)C(=O)NC2=O)c2ccccc21 | > 100 µM | > 100 µM | > 100 µM
49 | O=C1NC(=N[C@@H](CO)c2ccccc2)S/C1=C\c1ccc2ncccc2c1 | > 100 µM | > 100 µM | > 100 µM
50 | Cn1cc(C2=C(c3cn(C)c4cc(N)ccc34)C(=O)NC2=O)c2ccccc21 | > 100 µM | > 100 µM | > 100 µM
51 | Cc1[nH]nc2c1N=C(c1ccccc1F)c1cc(C#N)ccc1N2 | > 100 µM | > 100 µM | > 100 µM
52 | Cn1cc(C2=C(c3cccc(Cl)c3)C(=O)NC2=O)c2ccccc21 | > 100 µM | > 100 µM | > 100 µM
53 | CS(=O)(=O)CCc1cccc(C(=O)c2cnn(-c3ccc(F)cc3)c2N)c1 | > 100 µM | > 100 µM | > 100 µM
54 | CCOc1ccccc1CCN=C1NC(=O)/C(=C/c2ccc3ncccc3c2)S1 | > 100 µM | > 100 µM | > 100 µM
55 | Cn1cc(C2=C(n3ccc4ccccc43)C(=O)NC2=O)c2ccccc21 | > 100 µM | > 100 µM | > 100 µM
56 | O=C1NC(=N[C@H](CO)Cc2ccccc2)S/C1=C\c1ccc2ncccc2c1 | > 100 µM | > 100 µM | > 100 µM
57 | O=C1NC(=N[C@H](CO)c2ccccc2)S/C1=C\c1ccc2ncccc2c1 | > 100 µM | > 100 µM | > 100 µM
58 | O=c1c(Oc2ccc(F)cc2F)cc2cnc(NC3CCOCC3)nc2n1C1CCS(=O)(=O)CC1 | > 100 µM | > 100 µM | > 100 µM
59 | Nc1c(C(=O)c2cccc(C#CCO)c2)cnn1-c1ccc(F)cc1 | > 100 µM | > 100 µM | > 100 µM
60 | COc1cccc(C2=C(c3cn(C)c4cc(F)ccc34)C(=O)NC2=O)c1 | > 100 µM | > 100 µM | > 100 µM
61 | Cn1cc(C2=C(c3cn(CCCN/C(N)=N/[N+](=O)[O-])c4ccccc34)C(=O)NC2=O)c2ccccc21 | > 100 µM | > 100 µM | > 100 µM
